System: F21D (DNA, G4) GGGTTAGGGTTAGGGTTAGGG
Assay: FRET melting
Details: 5 mM K+, 95 mM Li+; 10 mM lithium cacodylate, pH 7.2; 0.2 µM DNA, 4 µM compound

ΔTm: 14 ± 1 °C
SMILES: [Ru+2].c1ccc(-c2ccccn2)nc1.c1ccc(-c2ccccn2)nc1.c1ccc2nc3c4cccnc4c4ncccc4c3nc2c1

Source: PMC10668861 (2023)
